In the test the target is T1, Human IP6K1 (Homo sapiens, UniProt Q92551).
T1 construct: GST (N, cleaved yes); made in house; host or cells: C43 E. coli, pGEX-6P-2
Nature of the test: IP6K1 high-throughput screen of the Sigma LOPAC (ADP-Glo Max, single point).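 Further: final compound concentration 10µM in 5% DMSO.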 In kind it is biochemical.

Where [1] appears, read: LOPAC single-point screen, ADP-Glo Max luminescence raw signal per well.
[2] abbreviates: LOPAC single-point screen, Z-score relative to plate average and StDev.
Setting [3] is: Sigma LOPAC single-point screen, ADP-Glo Max raw signal per well.
[4] abbreviates: Sigma LOPAC single-point screen, Z-score from plate average and StDev.
The mark [5] stands for this setting: LOPAC single-point screen, ADP-Glo Max raw signal per well.
The mark [6] stands for this setting: LOPAC single-point screen, Z-score against plate average and StDev.
[7] abbreviates: LOPAC single-point screen, Z-score from raw signal with plate average and StDev.

Structures can show the parent of a compound that is named as a salt. Where two headings read alike, the source gives them in different places.

T1 sequence (Q92551 whole entry): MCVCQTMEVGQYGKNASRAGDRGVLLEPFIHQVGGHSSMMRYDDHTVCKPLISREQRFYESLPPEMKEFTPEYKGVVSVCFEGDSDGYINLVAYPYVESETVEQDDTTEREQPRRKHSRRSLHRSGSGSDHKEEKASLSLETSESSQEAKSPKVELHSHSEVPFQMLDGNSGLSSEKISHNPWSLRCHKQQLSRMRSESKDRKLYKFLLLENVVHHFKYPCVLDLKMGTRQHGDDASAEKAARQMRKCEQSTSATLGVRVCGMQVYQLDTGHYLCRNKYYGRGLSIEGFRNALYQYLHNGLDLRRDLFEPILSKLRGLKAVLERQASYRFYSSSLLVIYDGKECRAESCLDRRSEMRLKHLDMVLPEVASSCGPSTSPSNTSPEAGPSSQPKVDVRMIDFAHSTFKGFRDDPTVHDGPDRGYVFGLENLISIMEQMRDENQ

For `N#CC(C#N)=C(N)/C(C#N)=C/c1ccc(O)cc1` [Tyrphostin AG 112], under setting [1], the “Raw Signal” value stood at 52903. Also, the Z-score under setting [2] is -0.6063.

As to `O=C(CCCN1CCC(O)(c2ccc(Cl)cc2)CC1)c1ccc(F)cc1` [Haloperidol], under setting [1], the “Raw Signal” value is 51923. Under setting [2], the Z-score is reported as -0.6588.

Take `NCCc1c[nH]cn1` [Histamine dihydrochloride]: under setting [1], the “Raw Signal” value turned out to be 51759. Moreover, the Z-score under setting [2] is given as -0.6921.

With `CN1CCN(c2nc3cc(C(F)(F)F)ccc3n3cccc23)CC1.O=C(O)/C=C\C(=O)O` [CGS-12066A maleate], the “Raw Signal” value under setting [3] was 58347. Moreover, under setting [4], the Z-score is given as 0.6458.

`COCCCC/C(=N\OCCN)c1ccc(C(F)(F)F)cc1` [Fluvoxamine maleate]: under setting [3], the “Raw Signal” value was 56948. Also, the Z-score under setting [4] amounted to 0.3617.

For `CCN(CC)CCNC(=O)c1cc(Cl)c(N)cc1OC.Cl` [Metoclopramide hydrochloride], the “Raw Signal” value under setting [5] was determined as 53948. In addition, the Z-score under setting [6] is recorded as -0.07486.

For `Br.C=CCN1CCc2cc(O)c(O)cc2C(c2ccc(O)cc2)C1` (racemic) [(±)-SKF 38393, N-allyl-, hydrobromide], the “Raw Signal” value under setting [5] is recorded as 54138. Also, the Z-score under setting [7] is on record as -0.3664.

For `COc1ccc2cc([C@H](C)C(=O)[O-])ccc2c1.[Na+]` [(-)-Naproxen sodium], under setting [3], the “Raw Signal” value is given as 56716. The Z-score under setting [4] is recorded as 0.3902.

`COc1ccccc1N1CCN(CCN2C(=O)CC3(CCCC3)CC2=O)CC1.Cl.Cl` [BMY 7378 dihydrochloride]: the “Raw Signal” value under setting [1] came out at 52642. Further, the Z-score under setting [2] is -0.9284.

Turning to `O=S(=O)(c1cccc2c(Cl)cccc12)N1CCCNCC1` [ML-9], the “Raw Signal” value under setting [5] is recorded as 57828. For the same molecule, the Z-score under setting [6] was -0.01499.

For `CS(=O)(=O)Nc1ccc([N+](=O)[O-])cc1Oc1ccccc1` [Nimesulide], under setting [5], the “Raw Signal” value came out at 51877. Moreover, the Z-score under setting [7] is given as -0.4228.

On to `O=C(Nc1cccc(C(=O)Nc2ccc(S(=O)(=O)O)c3cc(S(=O)(=O)O)cc(S(=O)(=O)O)c23)c1)Nc1cccc(C(=O)Nc2ccc(S(=O)(=O)O)c3cc(S(=O)(=O)O)cc(S(=O)(=O)O)c23)c1` [NF 023], for which, under setting [1], the “Raw Signal” value was 39481. Further, under setting [2], the Z-score was -2.506.

Turning to `C[N+](C)(C)CCOC(=O)CBr.[Br-]` [Bromoacetylcholine bromide], the “Raw Signal” value under setting [1] worked out at 53767. The Z-score under setting [2] is on record as -0.7302.

For `N=c1ccn2c(n1)O[C@H]1[C@H](O)[C@@H](CO)O[C@H]12` [Ancitabine hydrochloride], the “Raw Signal” value under setting [5] is 57428. The Z-score under setting [6] is given as -0.08544.

On to MDL 26,630 trihydrochloride, for which the “Raw Signal” value under setting [5] amounted to 53612. Under setting [7], the Z-score is -0.1313.

In the case of `O=C(c1ccc2c(c1)OCCO2)N1CCCCC1` [CX 546], the “Raw Signal” value under setting [3] was 57767. Moreover, under setting [4], the Z-score is given as 0.528.

Turning to `Clc1ccc(C(c2ccc(Cl)cc2)n2cc[n+](CC(OCc3ccc(Cl)cc3Cl)c3ccc(Cl)cc3Cl)c2)cc1` (stereo not shown) [Calmidazolium chloride], the “Raw Signal” value under setting [5] is recorded as 57343. Besides, under setting [7], the Z-score is -0.1004.

Consider `CC(=O)O[C@H]1C(=O)[C@@]2(C)[C@H]([C@H](OC(=O)c3ccccc3)[C@]3(O)C[C@H](OC(=O)[C@H](O)[C@@H](NC(=O)c4ccccc4)c4ccccc4)C(C)=C1C3(C)C)[C@]1(OC(C)=O)CO[C@@H]1C[C@@H]2O` [Taxol], for which the “Raw Signal” value under setting [3] is listed as 58493. The Z-score under setting [4] came out at 0.4797.

In the case of `C[C@]12CCC(=O)C=C1CC[C@@H]1[C@@H]2[C@@H](O)C[C@@]2(C)[C@H]1CC[C@]2(O)C(=O)COC(=O)CCC(=O)[O-].[Na+]` [Hydrocortisone 21-hemisuccinate sodium], under setting [3], the “Raw Signal” value is reported as 57689. In addition, the Z-score under setting [4] came to 0.5122.

As to `C=CCN1CC[C@]23c4c5ccc(O)c4O[C@@H]2/C(=N/N=C2\CC[C@@]4(O)C6Cc7ccc(O)c8c7[C@@]4(CCN6CC=C)[C@@H]2O8)CC[C@@]3(O)C1C5.Cl.Cl` [Naloxonazine dihydrochloride], the “Raw Signal” value under setting [1] came out at 51290. Moreover, the Z-score under setting [2] was -0.5215.

As for `C=CC(N)CCC(=O)O` (racemic) [(±)-gamma-Vinyl GABA], the “Raw Signal” value under setting [1] is on record as 68019. The molecule also showed a Z-score (LOPAC single-point screen, Z-score from plate average and StDev) of 2.33.

`Br.C=CCN1CCc2c(cc(O)c(O)c2Cl)C(c2ccccc2)C1` (racemic) [(±)-Chloro-APB hydrobromide]: the “Raw Signal” value under setting [3] was found to be 58189. The Z-score under setting [4] is recorded as 0.6137.

Consider `CC1=NS(=O)(=O)c2cc(Cl)ccc2N1` [Diazoxide], for which, under setting [3], the “Raw Signal” value is reported as 58351. Also, the Z-score under setting [4] was 0.6466.

Consider `C=CCc1ccccc1OCC(O)CNC1(C)CCC(C(C)(C)NC(=O)CBr)CC1` (stereo not shown) [Bromoacetyl alprenolol menthane], for which, under setting [5], the “Raw Signal” value is 55252. In addition, the Z-score under setting [7] is -0.4687.

In the case of `CC(C)N(CCC(=O)c1ccc2ccccc2c1)Cc1ccccc1.Cl` [ZM 39923 hydrochloride], under setting [5], the “Raw Signal” value stood at 54461. Under setting [6], the Z-score is 0.01134.

As for `COC(=O)[C@@H]1[C@H]2C[C@H]3c4[nH]c5ccccc5c4CCN3C[C@@H]2CC[C@@H]1O` [Yohimbine hydrochloride], under setting [5], the “Raw Signal” value stood at 57737. The molecule also yielded a Z-score under setting [6] of 0.3328.

On to `O.c1cnc2c(c1)ccc1cccnc12` [1,10-Phenanthroline monohydrate], for which the “Raw Signal” value under setting [1] came out at 52659. Moreover, the Z-score under setting [2] is given as -0.6537.

Take `C[C@H]1CCC/C=C/[C@@H]2C[C@H](O)C[C@H]2[C@H](O)/C=C/C(=O)O1`: the “Raw Signal” value under setting [3] stood at 59928. This molecule had a Z-score under setting [4] of 0.3549.

In the case of `CN1[C@@H]2CC[C@H]1C[C@@H](OC(c1ccccc1)c1ccccc1)C2` [Benztropine mesylate], the “Raw Signal” value under setting [3] turned out to be 60233. Under setting [4], this molecule came in with a Z-score of 0.4086.

Turning to `COc1cc(CNC(=O)CCCCCCC(C)C)ccc1O` [Dihydrocapsaicin], the “Raw Signal” value under setting [5] was determined as 52937. Besides, the Z-score under setting [7] was -0.2447.

`c1ccc2c(c1)[I+]c1ccccc1-2` [Diphenyleneiodonium chloride]: the “Raw Signal” value under setting [3] is recorded as 59663. The Z-score under setting [4] amounted to 0.9131.

Consider `Cl.NCCCCNS(=O)(=O)c1ccc2c(Cl)cccc2c1`, for which, under setting [5], the “Raw Signal” value amounted to 59537. The Z-score under setting [6] is given as 0.286.

On to `O=C(OCCN1CCOCC1)C1(c2ccccc2)CCCCC1` [PRE-084], for which, under setting [5], the “Raw Signal” value is on record as 55518. Also, the Z-score under setting [6] amounted to 0.1889.

For the molecule `Clc1ccc(C(c2ccccc2Cl)C(Cl)Cl)cc1` (stereo not shown), under setting [5], the “Raw Signal” value is recorded as 59387. Moreover, the Z-score under setting [6] is reported as 0.2596.

Take `C1COC(NC(C2CC2)C2CC2)=N1` [Rilmenidine hemifumarate]: the “Raw Signal” value under setting [5] stood at 56006. Further, the Z-score under setting [6] is recorded as -0.003459.

On to `C[N+]1(C)[C@@H]2CC[C@H]1C[C@@H](OC(=O)C(CO)c1ccccc1)C2` (stereo partly shown) [Atropine methyl nitrate], for which, under setting [3], the “Raw Signal” value was 60117. For the same molecule, the Z-score under setting [4] amounted to 0.3882.

Turning to `CC[N+](CC)(CC)CC` [Tetraethylammonium chloride], the “Raw Signal” value is recorded as 56416 and the Z-score is 0.0762.

As to `O=C(O)c1cc(O)cc(C(=O)O)n1` [Chelidamic acid], under setting [5], the “Raw Signal” value is listed as 56074. The Z-score under setting [7] is listed as -0.3239.

For the molecule `C[C@H](Cc1ccc2c(c1)OC(C(=O)[O-])(C(=O)[O-])O2)NC[C@H](O)c1cccc(Cl)c1.[Na+].[Na+]` [CL 316,243], the “Raw Signal” value under setting [5] amounted to 56247. Besides, the Z-score under setting [7] is recorded as -0.2934.

With `CCN(CC)CCCC(C)Nc1ccnc2cc(Cl)ccc12` (stereo not shown) [Chloroquine diphosphate], the “Raw Signal” value was found to be 55954 and the Z-score is -0.3451.

In the case of `C[C@@H]1C(=O)NC2=Nc3cccc(Cl)c3CN21` [Quazinone], under setting [5], the “Raw Signal” value came to 53682. Also, the Z-score under setting [7] is -0.455.

Turning to `CCCCC1C(=O)N(c2ccccc2)N(c2ccccc2)C1=O` [Phenylbutazone], the Z-score under setting [7] is listed as -0.2764.

On to `CCN1CCC[C@H]1CNC(=O)c1c(O)c(Cl)cc(Cl)c1OC.O=C(O)C(O)C(O)C(=O)O` (racemic) [S(+)-Raclopride L-tartrate], for which the “Raw Signal” value under setting [3] is listed as 59305. Under setting [4], this molecule gave a Z-score of 0.6375.

In the case of `Cc1cc(O)c2c(c1)C(=O)c1cc(O)cc(O)c1C2=O` [Emodin], under setting [3], the “Raw Signal” value was 61234. Besides, under setting [4], the Z-score stood at 1.232.

For the molecule `CC(C)NP(=O)(NC(C)C)OP(=O)(NC(C)C)NC(C)C` [Tetraisopropyl pyrophosphoramide], the “Raw Signal” value under setting [5] is listed as 57279. The same molecule registered a Z-score under setting [6] of 0.2439.

Consider `CCOC(=O)Nc1ccc(NCc2ccc(F)cc2)nc1N` [Flupirtine maleate], for which, under setting [5], the “Raw Signal” value amounted to 54811. Further, the Z-score under setting [6] is on record as -0.07231.

Consider `N=C(N)c1ccc(N)cc1` [4-Aminobenzamidine dihydrochloride], for which the “Raw Signal” value under setting [1] was determined as 52991. Further, under setting [2], the Z-score is reported as -0.8669.

In the case of `Cc1cn([C@H]2C=C[C@@H](CO)O2)c(=O)[nH]c1=O` [2 ,3 -didehydro-3 -deoxythymidine], under setting [5], the “Raw Signal” value is on record as 54462. The Z-score under setting [7] is -0.1432.

Turning to `COc1ccc(C2CNC(=O)C2)cc1OC1CCCC1` (stereo not shown) [Rolipram], the “Raw Signal” value under setting [5] is given as 57545. This molecule also yielded a Z-score under setting [6] of 0.2955.

Turning to `N[C@@H](CCC(=O)N[C@@H](CSN=O)C(=O)NCC(=O)O)C(=O)O` [S-Nitrosoglutathione], under setting [5], the “Raw Signal” value is listed as 53456. The Z-score under setting [7] is on record as -0.1575.

Turning to `Nc1c[n+](N2CCOCC2)no1.[Cl-]` [3-Morpholinosydnonimine hydrochloride], under setting [5], the “Raw Signal” value worked out at 53200. Further, the Z-score under setting [7] was -0.2005.

With `CNCC[C@@H](Oc1ccccc1C)c1ccccc1` [Tomoxetine], the “Raw Signal” value under setting [3] is given as 58582. This molecule also gave a Z-score under setting [4] of 0.497.

The values are drawn from paper PMC5706701, “Development of a homogenous high-throughput assay for inositol hexakisphosphate kinase 1 activity” (PLoS ONE, 2017).
